We go through two molecules from article PMC4438233, “Antibacterial effects of Traditional Chinese Medicine monomers against Streptococcus pneumoniae via inhibiting pneumococcal histidine kinase (VicK)” (Frontiers in Microbiology, 2015).

One data set can be described thus: Cytotoxicity assay (MTT). It is filed as cell-based. The note with it: African green monkey. The procedure:
The cytotoxicity of the drugs to Vero cells (African green monkey kidney cells) was detected as previously described (Huang et al., [2012]) with minor modifications. In 96-well cell culture plates, the cells (~10^3 cells per well) were exposed to the serially diluted drugs for 48 h. Then, relative cell numbers were assayed by co-incubation with 3-(4, 5-dimethylthiazol-2-yl)-2, 5-diphenyltetrazolium bromide for 4 h at 37°C in 5% CO2. Purple formazan salts were dissolved with DMSO after incubation. The absorbance of each well was measured at 595 nm and then converted to percentages of the control (cells treated with 1% DMSO). The concentration of the derivatives with 50% cytotoxicity for Vero cells (CC50) was calculated using GraphPad Prism 5 (San Diego, CA).

A further data set has as its system S. pneumoniae. Put plainly: Checkerboard test with erythromycin or tetracycline against S. pneumoniae. It is filed as cell-based, Streptococcus pneumoniae. The procedure:
The antimicrobial effects of different combinations of two antimicrobial agents were assayed using the checkerboard test (Bajaksouzian et al., [1997]). Each experiment was repeated thrice. […] The FIC index (FICI) was calculated using the following formula:
(§1) (2) FIC=FICA+FICB=[A]/MICA+[B]/MICB
(§2) where [A] and [B] are the concentrations of drugs A and B, respectively; MICA and FICA are the MIC and FIC of drug A for the organism, respectively; and MICB, and FICB are the MIC and FIC of drug B for the organism, respectively. The FIC index obtained was interpreted as follows: =0.5, synergy; FIC > 2.0, antagonism (Gupta and Kohli, [2003]).

Data set [1] deals with Penicillin-resistant S. pneumoniae strains. Put plainly: Checkerboard test with penicillin against penicillin-resistant S. pneumoniae. It is filed as cell-based, Streptococcus pneumoniae. The note with it: Streptococcus pneumoniae, agent alone. The procedure:
(§3) Minimum inhibitory concentration (MIC) assays for the antibacterial activities of the compounds were performed according to the standard […] method of the Clinical and Laboratory Standards Institute of America. MIC testing of drug-resistant S. pneumoniae, drug-resistant S. aureus, streptococci and antimicrobial combination was also performed using the same method. Briefly, the drugs were serially diluted 2-fold into eight wells with C+Y medium, yielding final concentrations ranging from […]. Then 10^6 CFU bacteria were added to each well. Inoculated medium containing 1% DMSO served as a bacterial growth control, whereas uninoculated medium served as a sterility control. The plates were incubated at 37°C for 12–16 h. […] The experiment was repeated three times.
The antimicrobial effects of different combinations of two antimicrobial agents were assayed using the checkerboard test (Bajaksouzian et al., [1997]). Each experiment was repeated thrice. The in vitro interaction between the five drugs with PEN was quantified by the fractional inhibitory concentration (FIC). The FIC index (FICI) was calculated using the following formula:
as §1, §2

A further data set deals with T1, full-length VicK protein (Streptococcus pneumoniae, UniProt Q8DPL8).
T1 construct: 6 His; made in house
T1 sequence (Q8DPL8 whole entry): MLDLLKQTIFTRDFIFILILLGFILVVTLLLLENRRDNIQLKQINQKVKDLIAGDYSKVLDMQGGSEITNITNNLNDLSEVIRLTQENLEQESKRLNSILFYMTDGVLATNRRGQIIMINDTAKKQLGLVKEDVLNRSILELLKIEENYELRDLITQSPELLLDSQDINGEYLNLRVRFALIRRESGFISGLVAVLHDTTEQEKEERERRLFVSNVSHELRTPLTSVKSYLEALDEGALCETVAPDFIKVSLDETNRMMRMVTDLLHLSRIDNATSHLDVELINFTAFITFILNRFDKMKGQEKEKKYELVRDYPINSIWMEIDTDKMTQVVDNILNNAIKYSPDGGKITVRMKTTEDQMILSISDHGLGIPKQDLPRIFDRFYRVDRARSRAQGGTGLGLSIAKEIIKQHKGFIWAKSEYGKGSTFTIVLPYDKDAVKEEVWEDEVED
Put plainly: Inhibition assay for ATPase activity of VicK (Kinase-Glo Luminescent Kinase Assay). It is filed as biochemical. The note with it: 6 μg VicK, 5 μM ATP. The protocol: The inhibitory activities of the Chinese medicine monomers for the ATPase activity of the full-length VicK protein were evaluated using the Kinase-Glo™Luminescent Kinase Assay (Promega, Madison, USA). Briefly, 6 μg VicK protein was pre-incubated with a series of dilution of compounds in the reaction buffer at 37°C for 30 min. 5 μM ATP was added and incubated for another 30 min. Kinase-Glo™Reagent was also added to detect the remaining ATP recorded from luminescence measurements (RLU). In parallel, the VicK protein with no addition of compounds was used as a control, and the mixture with compounds excluding the VicK protein served as another control. The rate of protein phosphorylation (Rp) inhibition by the compounds was calculated from Equation (1).
(1) Rp=1−RLU(compound+ATP+Reagent) −RLU(compound+ATP+vick+Reagent)/RLU(ATP +Reagent)−RLU(ATP+vick+Reagent)×100%
The half maximal inhibitory concentration (IC50), which is the concentration of inhibition of 50% VicK protein autophosphorylation, was determined by GraphPad Prism 5 (Qin et al., [2006]).

The test system of a further data set is S. pneumoniae NCTC7466. Put plainly: Mouse sepsis model, survival time. It is filed as in vivo, BALB/c mice. The note with it: i.p. infection 1 × 10^3 CFU; drug i.p. thrice a day for 3 d; untreated control 28.8 ± 1.25. The procedure: Female BALB/c mice (12–15 per group) aged 4–6 weeks were used to evaluate the antimicrobial effects of the compounds in vivo. In sepsis models, the mice were intraperitoneally infected with 100 μL S. pneumoniae NCTC7466 strain suspension (1 × 10^3 CFU). […] Two control groups were injected with 100 μL 1% DMSO (dissolved the drugs, negative control) or PEN (0.42 mg/kg/d, positive control) following the same injection route. The result was expressed as cumulative survival times following 7 d of observation.

A further data set concerns S. mitis. In words: MIC against S. mitis. It is filed as cell-based. Particulars: Streptococcus mitis. The procedure:
as §3

Data set [2] deals with S. pneumoniae NCTC7466 biofilm. Put plainly: Biofilm-killing assay (crystal violet). It is filed as cell-based, Streptococcus pneumoniae. The note with it: crystal violet staining; 15.6–2000 μM; MIC or sub-MIC levels. The procedure: Biofilm formation was detected using a semiquantitative plate assay (Moscoso et al., [2006]). 10^6 CFU of D39 was incubated in C+Y medium for 6 h in a 96-well plate at 37°C. Then removed the planktonic cells, fresh C+Y medium containing the serially diluted drugs was added to each well and incubated for another 12 h at 37°C. The wells were washed gently three times with phosphate-buffered saline (PBS) and then stained with 1% (w/v) crystal violet. 200 μL methanol was added to dissolve the precipitate and determine the absorbance of the wells at 590 nm using a spectrophotometer (DTX880, Beckman Coulter, USA). The values of biofilm formation were normalized for absorbance, and the percentages were calculated in relation to control. The experiment was repeated twice.

In a further data set the test system is S. pseudopneumoniae. In words: MIC against S. pseudopneumoniae. It is filed as cell-based. The note with it: Streptococcus pseudopneumoniae. The procedure: as §3
The mark [3] stands for this setting: in combination with Erythromycin.
The mark [4] stands for this setting: in combination with Tetracycline.

SMILES strings stand for the structures. Like-named read-outs stand apart in the source and are kept apart here.

In “Cytotoxicity assay (MTT)” (Vero cells), `CC(C)=CCCC1=CC(=O)c2c(O)ccc(O)c2C1=O` [Compound 3, Deoxyshikonin] had a CC50 at 48 h of 4680 µM. In addition, the FICI in the data set with S. pneumoniae (setting [3]) worked out at 0.37; in the data set with S. pneumoniae (setting [4]), 0.125. Also, the Outcome entry in the data set on S. pneumoniae (setting [3]) was “Synergy (=0.5, synergy)”; in the data set with S. pneumoniae (setting [4]), “Synergy (=0.5, synergy)”. Besides, the MIC in data set [1] (read-out: MIC, Alone, strain 652336) was determined as 136 µg/mL; in data set [1] (read-out: MIC, Alone, strain 736007), 136 µg/mL; in data set [1] (read-out: MIC, Alone, strain 8364981), 136 µg/mL; in data set [1] (read-out: MIC, Alone, strain 12092624), 136 µg/mL; with S. mitis it was 125 µg/mL; with S. pseudopneumoniae, 136 µg/mL. Besides, the IC50 at full-length VicK protein (read-out: IC50 (inhibition of VicK ATPase activity / autophosphorylation) (converted)) was 15.4 µM; on full-length VicK protein (value in parentheses, read-out: IC50 (inhibition of VicK ATPase activity / autophosphorylation) (converted)), 15.4 µM. For the same molecule, the “Mean survival of mice ± SEM” value in the data set with S. pneumoniae NCTC7466 is 50.6 ± 4.1 h. In addition, in data set [2], the “inhibition of biofilm formation” value is given as “inhibit biofilm formation at sub-MIC”.
Consider `CCCCCCCCCCCCOC(=O)c1cc(O)c(O)c(O)c1` [Compound 5, Dodecyl gallate], for which the CC50 at 48 h in “Cytotoxicity assay (MTT)” (Vero cells (African green monkey kidney cells)) is 6450 µM. Also, the FICI in the data set on S. pneumoniae (setting [3]) is given as 0.31; in the data set with S. pneumoniae (setting [4]), 0.18. The Outcome entry was “Synergy (=0.5, synergy)” with S. pneumoniae (setting [3]) and “Synergy (=0.5, synergy)” with S. pneumoniae (setting [4]). In addition, the MIC was 84.4 µg/mL in data set [1] (strain 652336, read-out: MIC, Alone); 337 µg/mL in data set [1] (strain 736007, read-out: MIC, Alone); 168 µg/mL in data set [1] (strain 8364981, read-out: MIC, Alone); 84.4 µg/mL in data set [1] (strain 12092624, read-out: MIC, Alone); 338 µg/mL in the data set with S. mitis (S. mitis clinical isolate, 10^6 CFU/ml, read-out: MIC); 42 µg/mL in the data set with S. pseudopneumoniae (S. pseudopneumoniae clinical isolate, 10^6 CFU/ml, read-out: MIC). For the same molecule, the IC50 against full-length VicK protein (IC50 (inhibition of VicK ATPase activity / autophosphorylation)) was 9.1 µM; at full-length VicK protein (IC50 (inhibition of VicK ATPase activity / autophosphorylation), value in parentheses), 9.07 µM. Further, in the data set on S. pneumoniae NCTC7466, the “Mean survival of mice ± SEM” value amounted to 60.2 ± 7.3 h. Further, the “inhibition of biofilm formation” value in data set [2] is on record as “inhibit biofilm formation at sub-MIC”.
